Experimental data published in ChEMBL document CHEMBL1149290, “Discovery of tetralin carboxamide growth hormone secretagogue receptor antagonists via scaffold manipulation” (J Med Chem, 2004).

What was measured:
[1] = Clearance in rat; format: ADME, organism-based; conditions: in vivo
[2] = Oral bioavailability in rat; format: ADME, organism-based; conditions: in vivo
[3] = Inhibition of adrenergic receptor; design: species or system Homo sapiens
[4] = target: Voltage-gated inwardly rectifying potassium channel KCNH2 (Homo sapiens, UniProt Q12809); assay: Inhibition of hERG receptor; format: toxicity
[5] = target: Muscarinic acetylcholine receptor; assay: Inhibition of muscarinic receptor; format: protein assay, Homo sapiens
[6] = Inhibition of histaminergic receptor
[7] = Inhibition of dopaminergic receptor; design: species or system Homo sapiens
[8] = target: Growth hormone secretagogue receptor type 1 (Homo sapiens, UniProt Q92847); assay: Binding affinity to GHSR
Chain of Growth hormone secretagogue receptor type 1 (Q92847 whole entry): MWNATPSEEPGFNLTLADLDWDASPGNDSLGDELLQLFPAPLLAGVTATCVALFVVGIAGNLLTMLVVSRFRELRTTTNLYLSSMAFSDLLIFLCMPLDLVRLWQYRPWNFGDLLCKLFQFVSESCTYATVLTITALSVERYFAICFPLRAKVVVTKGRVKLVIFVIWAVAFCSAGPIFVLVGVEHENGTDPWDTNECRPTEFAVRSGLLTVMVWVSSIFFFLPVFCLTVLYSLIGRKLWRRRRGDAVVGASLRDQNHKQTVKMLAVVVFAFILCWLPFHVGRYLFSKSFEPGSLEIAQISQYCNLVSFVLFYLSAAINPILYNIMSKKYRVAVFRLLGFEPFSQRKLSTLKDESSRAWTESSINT

Chain of Voltage-gated inwardly rectifying potassium channel KCNH2 (Q12809 whole entry): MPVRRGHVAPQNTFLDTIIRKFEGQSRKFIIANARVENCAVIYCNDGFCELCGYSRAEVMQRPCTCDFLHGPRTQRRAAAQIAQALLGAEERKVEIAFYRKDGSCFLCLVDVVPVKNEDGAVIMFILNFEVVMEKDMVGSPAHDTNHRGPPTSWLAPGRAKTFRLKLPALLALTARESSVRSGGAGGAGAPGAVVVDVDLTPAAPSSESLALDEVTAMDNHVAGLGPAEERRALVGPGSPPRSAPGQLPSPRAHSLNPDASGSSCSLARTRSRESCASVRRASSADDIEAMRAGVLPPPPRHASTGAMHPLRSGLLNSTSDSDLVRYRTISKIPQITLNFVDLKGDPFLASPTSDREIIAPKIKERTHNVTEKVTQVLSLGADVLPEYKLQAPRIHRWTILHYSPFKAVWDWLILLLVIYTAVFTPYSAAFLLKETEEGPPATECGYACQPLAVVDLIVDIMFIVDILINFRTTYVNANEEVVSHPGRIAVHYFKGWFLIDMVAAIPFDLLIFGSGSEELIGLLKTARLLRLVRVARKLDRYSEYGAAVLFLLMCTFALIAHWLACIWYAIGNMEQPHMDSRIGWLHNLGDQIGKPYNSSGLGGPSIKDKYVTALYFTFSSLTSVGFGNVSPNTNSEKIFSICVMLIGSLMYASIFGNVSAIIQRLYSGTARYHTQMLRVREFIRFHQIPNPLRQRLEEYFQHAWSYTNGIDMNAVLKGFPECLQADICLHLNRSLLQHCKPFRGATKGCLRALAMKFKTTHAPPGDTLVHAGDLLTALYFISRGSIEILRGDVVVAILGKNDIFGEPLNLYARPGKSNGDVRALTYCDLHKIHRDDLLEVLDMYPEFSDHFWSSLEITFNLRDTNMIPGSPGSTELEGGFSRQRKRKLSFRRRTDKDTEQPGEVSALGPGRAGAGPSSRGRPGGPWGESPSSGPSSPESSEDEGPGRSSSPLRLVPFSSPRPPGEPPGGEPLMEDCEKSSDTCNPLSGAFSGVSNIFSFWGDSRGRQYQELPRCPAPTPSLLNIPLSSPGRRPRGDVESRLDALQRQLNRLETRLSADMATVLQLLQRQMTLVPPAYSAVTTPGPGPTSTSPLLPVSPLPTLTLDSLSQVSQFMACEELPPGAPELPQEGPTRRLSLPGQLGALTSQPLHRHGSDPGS

Compound | clearance [1] | bioavailability [2] | IC50 [8] | further results
CCN(CC)c1ccc(NC(=O)c2c(-c3c(Cl)cccc3Cl)noc2C)cc1 | 61.7 mL/min/kg | – | – | –
CCN(CC)c1ccc(NC(=O)C2(N(C)C(=O)OCC(C)C)CCc3cccc(OC)c3C2)cc1 (racemic) | 21.7 mL/min/kg | 19% | – | IC50 [3]: > 33 µM; IC50 [4]: 6.1 µM; IC50 [5]: > 33 µM; IC50 [6]: > 33 µM; IC50 [7]: > 33 µM
CCN(CC)c1ccc(NC(=O)C2CCc3ccccc3C2)cc1 (racemic) | – | – | 2700 nM (antagonist) | –
CCN(CC)c1ccc(NC(=O)C2(NC(=O)OCC(C)C)CCc3ccccc3C2)cc1 (racemic) | – | – | 11 nM (antagonist) | –
CCN(CC)c1ccc(NC(=O)C2(NC(=O)OCC(C)C)CCc3cccc(Cl)c3C2)cc1 (racemic) | – | 3.8% | 2 nM (antagonist) | –
CCN(CC)c1ccc(NC(=O)C2(NC(=O)OC(C)(C)C)CCc3ccccc3C2)cc1 (racemic) | – | – | 120 nM (antagonist) | –
